# Assay results: ChEMBL document CHEMBL6134905, “Double Swords in One: Novel Selective PI3K/110β PROTAC Degraders for the Treatment of Multidrug-Resistant Cancer by Activating ERS and Inhibiting P-gp” (J Med Chem, 2025)
# pIC50: −log10 of the molar value. Activity calls are given as the source filed them. No cut-off for these calls is given here.
# Legend:
# MCF7 = assay: Antitumor activity against human MCF7 cells assessed as cell viability incubated for 24 hrs by MTT assay; assay type: functional, cell-based; conditions: MCF7, 24 h
# MCF7/ADM [1] = assay: Antitumor activity against human MCF7/ADM cells xenografted in BALB/c mouse assessed as effect on PTEN expression in tumor at 50 mg/kg, ip by Western blot analysis; assay type: functional, organism-based
# MCF7/ADM [2] = assay: Induction of apoptosis in human MCF7/ADM cells assessed as increase in cleaved caspase-3 expression at 12.5 uM incubated for 24 hrs by Western blot analysis; assay type: functional, cell-based
# MCF7/ADM [3] = assay: Upregulation of p-IRE1 expression in human MCF7/ADM cells at 0.25 to 25 uM incubated for 24 hrs by Western blot analysis; assay type: functional, cell-based; conditions: dose 0.25-25 µM
# [4] = target: T1, von Hippel-Lindau disease tumor suppressor/Phosphatidylinositol 4,5-bisphosphate 3-kinase catalytic subunit beta isoform (Homo sapiens, UniProt P42338+P40337); assay: PROTAC activity at PI3K-p110beta/VHL in human MCF7/ADM cells assessed as reduction in PI3K-p110beta level incubated for 12 to 36 hrs by Western blot analysis; assay type: cell-based; conditions: time 12-36 hrs
# T1 sequence (P40337 whole entry, looked up, canonical isoform): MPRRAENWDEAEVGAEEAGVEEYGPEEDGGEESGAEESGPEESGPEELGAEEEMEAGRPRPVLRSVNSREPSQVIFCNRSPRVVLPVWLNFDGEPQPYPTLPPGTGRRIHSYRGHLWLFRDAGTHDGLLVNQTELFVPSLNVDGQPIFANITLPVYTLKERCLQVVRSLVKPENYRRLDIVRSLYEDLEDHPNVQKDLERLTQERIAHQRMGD
# T1 sequence (P42338 whole entry, looked up, canonical isoform): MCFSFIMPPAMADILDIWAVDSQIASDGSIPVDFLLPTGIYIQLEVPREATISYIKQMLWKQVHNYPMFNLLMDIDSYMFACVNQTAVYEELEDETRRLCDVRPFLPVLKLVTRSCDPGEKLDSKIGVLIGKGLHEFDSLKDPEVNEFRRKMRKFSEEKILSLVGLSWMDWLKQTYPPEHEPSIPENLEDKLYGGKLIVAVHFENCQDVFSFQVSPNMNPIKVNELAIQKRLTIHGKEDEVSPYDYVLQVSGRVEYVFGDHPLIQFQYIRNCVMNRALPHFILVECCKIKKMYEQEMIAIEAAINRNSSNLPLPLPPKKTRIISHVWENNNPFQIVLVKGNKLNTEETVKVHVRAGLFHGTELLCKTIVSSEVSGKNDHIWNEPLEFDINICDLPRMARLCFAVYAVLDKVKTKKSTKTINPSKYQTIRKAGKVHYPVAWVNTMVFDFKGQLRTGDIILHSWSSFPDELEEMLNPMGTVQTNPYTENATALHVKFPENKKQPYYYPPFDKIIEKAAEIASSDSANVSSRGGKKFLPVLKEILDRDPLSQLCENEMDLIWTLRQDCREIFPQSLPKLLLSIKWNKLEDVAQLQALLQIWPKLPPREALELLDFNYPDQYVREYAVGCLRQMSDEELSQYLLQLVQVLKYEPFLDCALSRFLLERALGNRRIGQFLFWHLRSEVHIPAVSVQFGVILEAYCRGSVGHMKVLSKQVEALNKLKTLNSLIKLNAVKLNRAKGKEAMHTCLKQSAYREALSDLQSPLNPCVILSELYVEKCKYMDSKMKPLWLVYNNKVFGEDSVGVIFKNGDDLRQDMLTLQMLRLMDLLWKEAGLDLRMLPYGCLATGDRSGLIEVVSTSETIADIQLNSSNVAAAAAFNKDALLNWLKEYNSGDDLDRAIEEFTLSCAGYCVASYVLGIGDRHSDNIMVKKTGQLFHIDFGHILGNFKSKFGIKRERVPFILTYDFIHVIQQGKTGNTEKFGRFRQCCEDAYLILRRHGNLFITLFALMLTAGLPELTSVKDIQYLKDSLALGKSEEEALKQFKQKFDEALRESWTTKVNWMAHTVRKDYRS
# MCF7/ADM [5] = assay: Antitumor activity against human MCF7/ADM cells xenografted in BALB/c mouse assessed as increase in caspase-12 expression in tumor at 50 mg/kg, ip by Western blot analysis; assay type: functional, organism-based
# [6] = Toxicity in BALB/c mouse xenografted with human MCF7/ADM cells assessed as change in AST level at 50 mg/kg, ip; assay type: organism-based; conditions: in vivo
# [7] = target: T1, von Hippel-Lindau disease tumor suppressor/Phosphatidylinositol 4,5-bisphosphate 3-kinase catalytic subunit beta isoform; assay: PROTAC activity at PI3K-p110beta/VHL in human MCF7/ADM cells assessed as reduction in PI3K-p110beta level incubated for 2 hrs by Western blot analysis; assay type: cell-based
# MCF7/ADM [8] = assay: Induction of apoptosis in human MCF7/ADM cells assessed as decrease in bcl-2 expression at 12.5 uM incubated for 24 hrs by Western blot analysis; assay type: functional, cell-based
# MCF7/ADM [9] = assay: Antitumor activity against human MCF7/ADM cells xenografted in BALB/c mouse assessed as increase in bax expression in tumor at 50 mg/kg, ip by Western blot analysis; assay type: functional, organism-based
# [10] = target: T1, von Hippel-Lindau disease tumor suppressor/Phosphatidylinositol 4,5-bisphosphate 3-kinase catalytic subunit beta isoform; assay: PROTAC activity at PI3K-p110beta/VHL in human A549/DDP cells assessed as induction of PI3K-p110beta degradation at 0.04 to 50 uM by Western blot analysis; assay type: cell-based; conditions: dose 0.04-50 µM, time 24.0 hrs
# MCF7/ADM [11] = assay: Induction of apoptosis in human MCF7/ADM cells assessed as increase in cleaved caspase-9 expression at 12.5 uM incubated for 24 hrs by Western blot analysis; assay type: functional, cell-based
# [12] = target: von Hippel-Lindau disease tumor suppressor/Phosphatidylinositol 4,5-bisphosphate 3-kinase catalytic subunit alpha isoform (Homo sapiens, UniProt P42336+P40337); assay: PROTAC activity at PI3K-p110alpha/VHL in human A549/DDP cells assessed as induction of PI3K-p110alpha degradation incubated for 24 hrs by Western blot analysis; assay type: cell-based; conditions: for Activity: dose 0.04-50 µM
# A549/CDDP [13] = assay: Induction of apoptosis in human A549/DDP cells assessed as increase in caspase-3 expression at 12.5 uM incubated for 24 hrs by Western blot analysis; assay type: functional, cell-based
# [14] = Toxicity in BALB/c mouse xenografted with human MCF7/ADM cells assessed as change in HGB level at 50 mg/kg, ip; assay type: organism-based; conditions: in vivo
# [15] = target: T1, von Hippel-Lindau disease tumor suppressor/Phosphatidylinositol 4,5-bisphosphate 3-kinase catalytic subunit beta isoform; assay: PROTAC activity at PI3K-p110beta/VHL in human MCF7/ADM cells assessed as induction of PI3K-p110beta degradation at 25 uM measured for 24 hrs in presence of VHL ligand by Western blot analysis; assay type: cell-based
# A549/CDDP [16] = assay: Upregulation of PERK expression in human A549/DDP cells at 0.25 to 25 uM incubated for 24 hrs by Western blot analysis; assay type: functional, cell-based; conditions: dose 0.25-25 µM
# A549/CDDP [17] = assay: Downregulation of p-gp level in human A549/DDP cells at 6.25 to 25 uM incubated for 24 hrs; assay type: functional, cell-based; conditions: dose 6.25-25 µM
# [18] = target: T1, von Hippel-Lindau disease tumor suppressor/Phosphatidylinositol 4,5-bisphosphate 3-kinase catalytic subunit beta isoform; assay: PROTAC activity at PI3K-p110beta/VHL in human A549/DDP cells assessed as induction of PI3K-p110beta degradation at 25 uM measured for 24 hrs in presence of MG132 by Western blot analysis; assay type: cell-based
# [19] = Antitumor activity against human MCF7/ADM cells assessed as cell viability incubated for 24 hrs by MTT assay; assay type: functional, cell-based
# MCF7/ADM [20] = assay: Antitumor activity against human MCF7/ADM cells xenografted in BALB/c mouse assessed as increase in GRP78 expression in tumor at 50 mg/kg, ip by Western blot analysis; assay type: functional, organism-based
# A549/CDDP [21] = assay: Activation of unfolded protein response in human A549/DDP cells at 25 uM incubated for 24 hrs by PROTEOSTATR aggresome dye based fluorescent microscopy; assay type: functional, cell-based
# MCF7/ADM [22] = assay: Upregulation of CHOP expression in human MCF7/ADM cells at 0.25 to 25 uM incubated for 24 hrs by Western blot analysis; assay type: functional, cell-based; conditions: dose 0.25-25 µM
# MCF7/ADM [23] = assay: Antitumor activity against human MCF7/ADM cells xenografted in BALB/c mouse assessed as decrease in bcl-2 expression in tumor at 50 mg/kg, ip by Western blot analysis; assay type: functional, organism-based
# MCF7/ADM [24] = assay: Antitumor activity against human MCF7/ADM cells xenografted in BALB/c mouse assessed as increase in CHOP expression in tumor at 50 mg/kg, ip by Western blot analysis; assay type: functional, organism-based
# [25] = target: T1, von Hippel-Lindau disease tumor suppressor/Phosphatidylinositol 4,5-bisphosphate 3-kinase catalytic subunit beta isoform; assay: PROTAC activity at PI3K-p110beta/VHL in human MCF7/ADM cells assessed as reduction in PI3K-p110beta level by Western blot analysis; assay type: cell-based; conditions: time <= 48.0 hrs
# MCF7/ADM [26] = assay: Activation of unfolded protein response in human MCF7/ADM cells at 25 uM incubated for 24 hrs by PROTEOSTATR aggresome dye based fluorescent microscopy; assay type: functional, cell-based
# A549/CDDP [27] = assay: Upregulation of ATF6 expression in human A549/DDP cells at 0.25 to 25 uM incubated for 24 hrs by Western blot analysis; assay type: functional, cell-based; conditions: dose 0.25-25 µM
# A549/CDDP [28] = assay: Induction of apoptosis in human A549/DDP cells assessed as increase in cleaved caspase-3 expression at 12.5 uM incubated for 24 hrs by Western blot analysis; assay type: functional, cell-based
# A549/CDDP [29] = assay: Induction of apoptosis in human A549/DDP cells assessed as increase in caspase-9 expression at 12.5 uM incubated for 24 hrs by Western blot analysis; assay type: functional, cell-based
# A549/CDDP [30] = assay: Antitumor activity against human A549/DDP cells assessed as cell viability incubated for 24 hrs by MTT assay; assay type: functional, cell-based
# MCF7/ADM [31] = assay: Antitumor activity against human MCF7/ADM cells xenografted in BALB/c mouse assessed as reduction in p-110beta expression in tumor at 50 mg/kg, ip by Western blot analysis; assay type: functional, organism-based
# A549/CDDP [32] = assay: Induction of ROS level in human A549/DDP cells at 25 uM measured for 24 hrs by MitoSOX staining based analysis; assay type: functional, cell-based
# A549/CDDP [33] = assay: Upregulation of ATF4 expression in human A549/DDP cells at 0.25 to 25 uM incubated for 24 hrs by Western blot analysis; assay type: functional, cell-based; conditions: dose 0.25-25 µM
# MCF7/ADM [34] = assay: Antitumor activity against human MCF7/ADM cells xenografted in BALB/c mouse assessed as increase in pIRE1 expression in tumor at 50 mg/kg, ip by Western blot analysis; assay type: functional, organism-based
pIC50 (MCF7),Activity [4],Activity [7],Activity [10],Activity [12],Activity [15],Activity [18],Compound,Activity (MCF7/ADM [1]),Activity (MCF7/ADM [2]),Activity (MCF7/ADM [3]),Activity (MCF7/ADM [5]),Activity [6],Activity (MCF7/ADM [8]),Activity (MCF7/ADM [9]),Activity (MCF7/ADM [11]),Activity (A549/CDDP [13]),Activity [14],Activity (A549/CDDP [16]),Activity (A549/CDDP [17]),pIC50 [19],also measured
4.47,Active,Active,Time-dependent-effect,Dose-dependent-effect,Active,Active,Cc1cc(C(C)Nc2ccccc2C(=O)NCCOCCOCCC(=O)N[C@H](C(=O)N2C[C@H](O)C[C@H]2C(=O)NCc2ccc(-c3scnc3C)cc2)C(C)(C)C)c2nc(N3CCOCC3)cc(=O)n2c1 (stereo partly specified),inactive,Active,Active,Active,Non-toxic,Active,Active,Active,Active,Non-toxic,Active,Active,4.52,Activity (MCF7/ADM [20]): Active; Activity (A549/CDDP [21]): Active; Activity (MCF7/ADM [22]): Active; Activity (MCF7/ADM [23]): Active; Activity (MCF7/ADM [24]): Active; Activity [25]: Time-dependent-effect; Activity (MCF7/ADM [26]): Active; Activity (A549/CDDP [27]): Active; Activity (A549/CDDP [28]): Active; Activity (A549/CDDP [29]): Active; pIC50 (A549/CDDP [30]): 4.37; Activity (MCF7/ADM [31]): Active; Activity (A549/CDDP [32]): Active; Activity (A549/CDDP [33]): Active; Activity (MCF7/ADM [34]): Active
4.27,Active,Active,Time-dependent-effect,Dose-dependent-effect,Active,Active,Cc1cc(C(C)Nc2ccccc2C(=O)NCCCCCCC(=O)N[C@H](C(=O)N2C[C@H](O)C[C@H]2C(=O)NCc2ccc(-c3scnc3C)cc2)C(C)(C)C)c2nc(N3CCOCC3)cc(=O)n2c1 (stereo partly specified),inactive,Active,Active,Active,Non-toxic,Active,Active,Active,Active,Non-toxic,Active,Active,4.41,DC50 [12]: > 30 µM; Activity (MCF7/ADM [20]): Active; Activity (A549/CDDP [21]): Active; Activity (MCF7/ADM [22]): Active; Activity (MCF7/ADM [23]): Active; Activity (MCF7/ADM [24]): Active; Activity [25]: Time-dependent-effect; Activity (MCF7/ADM [26]): Active; Activity (A549/CDDP [27]): Active; Activity (A549/CDDP [28]): Active; Activity (A549/CDDP [29]): Active; pIC50 (A549/CDDP [30]): 4.41; Activity (MCF7/ADM [31]): Active; Activity (A549/CDDP [32]): Active; Activity (A549/CDDP [33]): Active; Activity (MCF7/ADM [34]): Active
